Source: patent US10106544B2, “1,2-dihydro-3H-pyrrolo[1,2-C]imidazol-3-one derivatives and their use as antibacterial agents” (priority 2014, dated 2018)
≈ marks a conversion by molar mass, not a printed value.

Experiments:
Assay in all cases: Bacterial growth minimal inhibitory concentration (microdilution, cation-adjusted Mueller-Hinton Broth)
Type in all cases: cell-based
E. coli ATCC25922 = details: quinolone-sensitive strain; for MIC: Escherichia coli, ATCC25922, read-out: MIC for E. coli ATCC25922
Experimental: (§1) Minimal Inhibitory Concentrations (MICs; mg/L) were determined in cation-adjusted Mueller-Hinton Broth by a microdilution method following the description given in “Methods for Dilution Antimicrobial Susceptibility Tests for Bacteria that Grow Aerobically”, Approved standard, 7th ed., a Clinical and Laboratory Standards Institute (CLSI) Document M7-A7, Wayne, Pa., USA (2006).
(§2) All Example compounds were tested against several Gram-positive and Gram-negative bacteria. […] K. pneumoniae A-651 is a multiply-resistant strain (in particular quinolone-resistant), while E. coli ATCC25922 and P. aeruginosa ATCC27853 are quinolone-sensitive strains.

K. pneumoniae A-651 = details: multiply-resistant strain (in particular quinolone-resistant); for MIC: Klebsiella pneumoniae, A651, read-out: MIC for K. Pneumoniae A-651
Experimental: as §1, §2

P. aeruginosa ATCC27853 = details: for MIC for P. aeruginosa ATCC27853: quinolone-sensitive strain; for MIC: Pseudomonas aeruginosa, ATCC27853, quinolone-sensitive strain, read-out: MIC for P. aeruginosa ATCC27853
Experimental: as §1, §2

Row | Compound | MIC for E. coli ATCC25922 (E. coli ATCC25922) [µg/mL] | MIC for K. Pneumoniae A-651 (K. pneumoniae A-651) [µg/mL] | MIC for P. aeruginosa ATCC27853 (P. aeruginosa ATCC27853) [µg/mL] | MIC (E. coli ATCC25922) [µg/mL] | MIC (K. pneumoniae A-651) [µg/mL] | MIC (P. aeruginosa ATCC27853) [µg/mL]
1 | C[C@H](O)c1ccc(C#Cc2cc3n(c2)C(=O)N(CC[C@](C)(C(=O)NO)S(C)(=O)=O)C3)cc1 [Example 14] | 0.125 | 0.25 | 1 |  |  | 
2 | C[C@@](CCN1Cc2cc(C#CC#CC3(CO)CC3)cn2C1=O)(C(=O)NO)S(C)(=O)=O [Example 15, (R)-N-hydroxy-4-(6-((1-(hydroxymethyl)cyclopropyl)buta-1,3-diyn-1-yl)-3-oxo-1H-pyrrolo[1,2-c]imidazol-2(3H)-yl)-2-methyl-2-(methylsulfonyl)butanamide] |  |  |  | 0.5 (≈ 1.15 µM) | 1 (≈ 2.31 µM) | 1 (≈ 2.31 µM)
3 | C[C@@](CCN1Cc2cc(C#Cc3ccc(CCO)cc3)cn2C1=O)(C(=O)NO)S(C)(=O)=O [Example 16, (R)-N-hydroxy-4-(6-((4-(2-hydroxyethyl)phenyl)ethynyl)-3-oxo-1H-pyrrolo[1,2-c]imidazol-2(3H)-yl)-2-methyl-2-(methylsulfonyl)butanamide] |  |  |  | ≤ 0.063 | 0.25 (≈ 0.544 µM) | 0.5 (≈ 1.09 µM)
4 | C[C@@](CCN1Cc2cc(C#Cc3ccc([C@@H](O)CO)cc3)cn2C1=O)(C(=O)NO)S(C)(=O)=O [Example 17, (R)-4-(6-((4-((R)-1,2-dihydroxyethyl)phenyl)ethynyl)-3-oxo-1H-pyrrolo[1,2-c]imidazol-2(3H)-yl)-N-hydroxy-2-methyl-2-(methylsulfonyl)butanamide] |  |  |  | 1 (≈ 2.1 µM) | 1 (≈ 2.1 µM) | 1 (≈ 2.1 µM)
5 | C[C@@](CCN1Cc2cc(C#Cc3ccc([C@H](O)CO)cc3)cn2C1=O)(C(=O)NO)S(C)(=O)=O [Example 18, (R)-4-(6-((4-((S)-1,2-dihydroxyethyl)phenyl)ethynyl)-3-oxo-1H-pyrrolo[1,2-c]imidazol-2(3H)-yl)-N-hydroxy-2-methyl-2-(methylsulfonyl)butanamide] |  |  |  | 0.5 (≈ 1.05 µM) | 1 (≈ 2.1 µM) | 1 (≈ 2.1 µM)
6 | C[C@@](CCN1Cc2cc(C#Cc3ccc(C4(CO)CC4)cc3F)cn2C1=O)(C(=O)NO)S(C)(=O)=O [Example 19, (R)-4-(6-((2-fluoro-4-(1-(hydroxymethyl)cyclopropyl)phenyl)ethynyl)-3-oxo-1H-pyrrolo[1,2-c]imidazol-2(3H)-yl)-N-hydroxy-2-methyl-2-(methylsulfonyl)butanamide] |  |  |  | 0.25 (≈ 0.496 µM) | 0.5 (≈ 0.993 µM) | 1 (≈ 1.99 µM)
7 | C[C@@](CCN1Cc2cc(C#Cc3ccc(N4CCN(CCO)C4=O)cc3)cn2C1=O)(C(=O)NO)S(C)(=O)=O [Example 20, (R)-N-hydroxy-4-(6-((4-(3-(2-hydroxyethyl)-2-oxoimidazolidin-1-yl)phenyl)ethynyl)-3-oxo-1H-pyrrolo[1,2-c]imidazol-2(3H)-yl)-2-methyl-2-(methylsulfonyl)butanamide] |  |  |  | 1 (≈ 1.84 µM) | 4 (≈ 7.36 µM) | 4 (≈ 7.36 µM)
8 | C[C@@](CCN1Cc2cc(C#Cc3ccc(NC(=O)CO)c(F)c3)cn2C1=O)(C(=O)NO)S(C)(=O)=O [Example 21, (R)-4-(6-((3-fluoro-4-(2-hydroxyacetamido)phenyl)ethynyl)-3-oxo-1H-pyrrolo[1,2-c]imidazol-2(3H)-yl)-N-hydroxy-2-methyl-2-(methylsulfonyl)butanamide] |  |  |  | 0.25 (≈ 0.494 µM) | 1 (≈ 1.97 µM) | 1 (≈ 1.97 µM)
9 | C[C@@](CCN1Cc2cc(C#Cc3ccc(OCCO)cc3)cn2C1=O)(C(=O)NO)S(C)(=O)=O [Example 22, (R)-N-hydroxy-4-(6-((4-(2-hydroxyethoxy)phenyl)ethynyl)-3-oxo-1H-pyrrolo[1,2-c]imidazol-2(3H)-yl)-2-methyl-2-(methylsulfonyl)butanamide] |  |  |  | 0.125 (≈ 0.263 µM) | 0.5 (≈ 1.05 µM) | 1 (≈ 2.1 µM)
10 | C[C@@](CCN1Cc2cc(C#Cc3ccc(C4(CO)CC4)nc3)cn2C1=O)(C(=O)NO)S(C)(=O)=O [Example 23, (R)-N-hydroxy-4-(6-((6-(1-(hydroxymethyl)cyclopropyl)pyridin-3-yl)ethynyl)-3-oxo-1H-pyrrolo[1,2-c]imidazol-2(3H)-yl)-2-methyl-2-(methylsulfonyl)butanamide] |  |  |  | 1 (≈ 2.06 µM) | 4 (≈ 8.22 µM) | 4 (≈ 8.22 µM)
11 | C[C@@](CCN1Cc2cc(C#Cc3ccc(C4(CO)CC4)cn3)cn2C1=O)(C(=O)NO)S(C)(=O)=O.O=CO [Example 24, (R)-N-hydroxy-4-(6-((5-(1-(hydroxymethyl)cyclopropyl)pyridin-2-yl)ethynyl)-3-oxo-1H-pyrrolo[1,2-c]imidazol-2(3H)-yl)-2-methyl-2-(methylsulfonyl)butanamide formate] |  |  |  | 8 | 32 | 8
12 | C[C@@](CCN1Cc2cc(C#Cc3ccc(CN4CCOCC4)cc3)cn2C1=O)(C(=O)NO)S(C)(=O)=O [Example 25, (R)-N-hydroxy-2-methyl-2-(methylsulfonyl)-4-(6-((4-(morpholinomethyl)phenyl)ethynyl)-3-oxo-1H-pyrrolo[1,2-c]imidazol-2(3H)-yl)butanamide] |  |  |  | 0.125 (≈ 0.243 µM) | 0.25 (≈ 0.486 µM) | 1 (≈ 1.94 µM)
13 | C[C@@](CCN1Cc2cc(C#Cc3ccc(C4(CN5CCOCC5)CC4)cc3)cn2C1=O)(C(=O)NO)S(C)(=O)=O [Example 26, (R)-N-hydroxy-2-methyl-2-(methylsulfonyl)-4-(6-((4-(1-(morpholinomethyl)cyclopropyl)phenyl)ethynyl)-3-oxo-1H-pyrrolo[1,2-c]imidazol-2(3H)-yl)butanamide] |  |  |  | 1 (≈ 1.8 µM) | 1 (≈ 1.8 µM) | 4 (≈ 7.21 µM)
14 | C[C@@](CCN1Cc2cc(C#CC#C[C@@H]3C[C@H]3CO)cn2C1=O)(C(=O)NO)S(C)(=O)=O [Example 27, (R)-N-hydroxy-4-(6-(((1R,2R)-2-(hydroxymethyl)cyclopropyl)buta-1,3-diyn-1-yl)-3-oxo-1H-pyrrolo[1,2-c]imidazol-2(3H)-yl)-2-methyl-2-(methylsulfonyl)butanamide] |  |  |  | ≤ 0.063 | 0.25 (≈ 0.577 µM) | 0.5 (≈ 1.15 µM)
15 | COc1cccc(-c2cc3n(c2)C(=O)N(CC[C@](C)(C(=O)NO)S(C)(=O)=O)C3)c1F [Example 28, (R)-4-(6-(2-fluoro-3-methoxyphenyl)-3-oxo-1H-pyrrolo[1,2-c]imidazol-2(3H)-yl)-N-hydroxy-2-methyl-2-(methylsulfonyl)butanamide] |  |  |  | ≤ 0.063 | 0.25 (≈ 0.569 µM) | 1 (≈ 2.28 µM)
16 | C[C@@](CCN1Cc2cc(/C=C/c3ccc(CO)cc3)cn2C1=O)(C(=O)NO)S(C)(=O)=O [Example 29, (R)-(E)-N-hydroxy-4-(6-(4-(hydroxymethyl)styryl)-3-oxo-1H-pyrrolo[1,2-c]imidazol-2(3H)-yl)-2-methyl-2-(methylsulfonyl)butanamide] |  |  |  | 0.25 (≈ 0.559 µM) | 0.5 (≈ 1.12 µM) | 2 (≈ 4.47 µM)
17 | C[C@@](CCN1Cc2cc(C#CC#CC34CC(CO)(C3)C4)cn2C1=O)(C(=O)NO)S(C)(=O)=O [Example 30, (R)-N-hydroxy-4-(6-(4-(3-(hydroxymethyl)bicyclo[1.1.1]pentan-1-yl)buta-1,3-diyn-1-yl)-3-oxo-1H-pyrrolo[1,2-c]imidazol-2(3H)-yl)-2-methyl-2-(methylsulfonyl)butanamide] |  |  |  | 0.125 (≈ 0.272 µM) | 0.25 (≈ 0.544 µM) | 0.5 (≈ 1.09 µM)
18 | CC(C)(N)C#CC#Cc1cc2n(c1)C(=O)N(CC[C@](C)(C(=O)NO)S(C)(=O)=O)C2 [Example 31, (R)-4-(6-(5-amino-5-methylhexa-1,3-diyn-1-yl)-3-oxo-1H-pyrrolo[1,2-c]imidazol-2(3H)-yl)-N-hydroxy-2-methyl-2-(methylsulfonyl)butanamide] |  |  |  | 1 (≈ 2.38 µM) | 1 (≈ 2.38 µM) | 1 (≈ 2.38 µM)
19 | C[C@@](CCN1Cc2cc(C#Cc3ccc(COC(N)=O)cc3)cn2C1=O)(C(=O)NO)S(C)(=O)=O [Example 32, (R)-4-((2-(4-(hydroxyamino)-3-methyl-3-(methylsulfonyl)-4-oxobutyl)-3-oxo-2,3-dihydro-1H-pyrrolo[1,2-c]imidazol-6-yl)ethynyl)benzyl carbamate] |  |  |  | ≤ 0.063 | 0.25 (≈ 0.512 µM) | 0.5 (≈ 1.02 µM)
20 | C[C@@](CCN1Cc2cc(C#CC#C[C@@H]3C[C@@H](O)[C@@H](O)C3)cn2C1=O)(C(=O)NO)S(C)(=O)=O [Example 33, (R)-4-(6-(((1S,3R,4S)-3,4-dihydroxycyclopentyl)buta-1,3-diyn-1-yl)-3-oxo-1H-pyrrolo[1,2-c]imidazol-2(3H)-yl)-N-hydroxy-2-methyl-2-(methylsulfonyl)butanamide] | 0.5 | 0.5 | 1 |  |  | 
21 | C[C@@](CCN1Cc2cc(C#Cc3ccc(C4(COC(N)=O)CC4)cc3)cn2C1=O)(C(=O)NO)S(C)(=O)=O [Example 34, (R)-(1-(4-((2-(4-(hydroxyamino)-3-methyl-3-(methylsulfonyl)-4-oxobutyl)-3-oxo-2,3-dihydro-1H-pyrrolo[1,2-c]imidazol-6-yl)ethynyl)phenyl)cyclopropyl)methyl carbamate] |  |  |  | 0.125 (≈ 0.236 µM) | 1 (≈ 1.89 µM) | 16 (≈ 30.3 µM)
22 | C[C@@](CCN1Cc2cc(C#CC#CC3(COC(N)=O)CC3)cn2C1=O)(C(=O)NO)S(C)(=O)=O [Example 35, (R)-(1-((2-(4-(hydroxyamino)-3-methyl-3-(methylsulfonyl)-4-oxobutyl)-3-oxo-2,3-dihydro-1H-pyrrolo[1,2-c]imidazol-6-yl)buta-1,3-diyn-1-yl)cyclopropyl)methyl carbamate] |  |  |  | 0.25 (≈ 0.525 µM) | 0.5 (≈ 1.05 µM) | 2 (≈ 4.2 µM)
